Results on four compounds are retold here after the NIST ThermoML archive (doi:10.1021/je049657g).

Molecules are shown by their SMILES. ± gives the expanded uncertainty stated by the source.

For the data set the following is noted: 298.15 K, Liquid; for viscosity: 101 kPa, Capillary tube (Ostwald / Ubbelohde) method; for mass density: 101.33 kPa.

As usually defined, the viscosity is the internal friction of a fluid under shear. A word on the mass density: it is the mass of a sample divided by its volume. As for `CN1CCCC1=O` [N-methylpyrrolidone], the viscosity was determined as 1.672 ± 0.014 mPa·s and the mass density worked out at 1027.91 ± 1.6 kg/m3.
Turning to `CN(C)C=O` [dimethylformamide], the viscosity is listed as 0.804 ± 0.007 mPa·s and the mass density is 943.65 ± 1.5 kg/m3.
In the same order, the values of `CC(=O)N(C)C` [N,N-dimethylethanamide] are 0.944 ± 0.008 mPa·s and 936.54 ± 1.4 kg/m3.
On the same counts, the results for `O=C1CCCN1` [2-pyrrolidinone] are 13.19 ± 0.17 mPa·s and 1106.82 ± 2 kg/m3.
